Experiment [1] deals with RAW264.7. The experiment in a line: Anti-inflammatory activity in LPS induced mouse RAW264.7 cells assessed as inhibition of IL-1beta mRNA expression incubated for 12 hrs followed by LPS stimulation and measured after 6 hrs by RT-PCR method. In kind it is functional, cell-based.
Experiment [2] relates to RAW264.7. The experiment can be described thus: Cytotoxicity against mouse RAW264.7 cells at 50 uM by MTT assay relative to control. In kind it is functional.
For experiment [3], the system named is RAW264.7. The experiment in a line: Anti-inflammatory activity in LPS induced mouse RAW264.7 cells assessed as inhibition of IL-1beta mRNA expression at 10 uM incubated for 12 hrs followed by LPS stimulation and measured after 6 hrs by RT-PCR method. In kind it is functional, cell-based. To be noted: time 18.0 hrs.
For experiment [4], the system named is Mus musculus. The experiment in a line: Antiinflammatory activity in HFCFD-induced NASH po dosed C57BL/6JNifdc mouse model assessed as downregulation of IL-12beta expression administered once daily for 4 weeks. In kind it is functional, organism-based. To be noted: dose 25-50 mg/kg.
Experiment [5] relates to Mus musculus. The experiment in a line: Antiinflammatory activity in NASH C57BL/6JNifdc po dosed mouse model assessed as decrease in NF-kappaB p65 phosphorylation level administered once daily for 4 weeks by Western blot analysis. In kind it is functional, organism-based. Conditions: dose 25-50 mg/kg. On the technique in general: A western blot detects proteins with antibodies after separation by electrophoresis.

The subject of experiment [6] is Mus musculus. The experiment can be described thus: Reduction in hepatic steatosis in HFCFD-induced NASH C57BL/6JNifdc mouse model assessed as reduction in liver/body weight ratio at 50 mg/kg, po administered once daily for 4 weeks. In kind it is functional, organism-based.
Experiment [7] relates to Mus musculus. The experiment in a line: Reduction in hepatic steatosis in HFCFD-induced NASH C57BL/6JNifdc mouse model assessed as decrease in fatty acids at 25 to 50 mg/kg, po administered once daily for 4 weeks by Oil red-O staining based assay. Conditions: dose 25-50 mg/kg. In kind it is functional, organism-based.
For experiment [8], the system named is Mus musculus. The experiment can be described thus: Antiinflammatory activity in HFCFD-induced NASH po dosed C57BL/6JNifdc mouse model assessed as downregulation of CCL2 expression administered once daily for 4 weeks. Conditions: dose 25-50 mg/kg. In kind it is functional, organism-based.
Experiment [9] concerns Mus musculus. The experiment in a line: Anti-fibrosis effect in HFCFD-induced NASH C57BL/6JNifdc mouse model assessed as downregulation of Col1a1 mRNA level at 25 to 50 mg/kg, po administered once daily for 4 weeks. In kind it is functional, organism-based. Conditions: dose 25-50 mg/kg.
In experiment [10] the test system is Mus musculus. The experiment can be described thus: Reduction in hepatic steatosis in HFCFD-induced NASH po dosed C57BL/6JNifdc mouse model assessed as decrease in hepatocellular vacuolization administered once daily for 4 weeks by H and E staining based analysis. In kind it is functional, organism-based. To be noted: dose 25-50 mg/kg.
Experiment [11] relates to Mus musculus. The experiment can be described thus: Reduction in hepatic steatosis in HFCFD-induced NASH C57BL/6JNifdc mouse model assessed as decrease in triglycerides at 25 to 50 mg/kg, po administered once daily for 4 weeks by Oil red-O staining based assay. Conditions: dose 25-50 mg/kg. In kind it is functional, organism-based.
The subject of experiment [12] is Mus musculus. The experiment can be described thus: Antiinflammatory activity in HFCFD-induced NASH po dosed C57BL/6JNifdc mouse model assessed as downregulation of CCL5 expression administered once daily for 4 weeks. In kind it is functional, organism-based. Conditions: dose 25-50 mg/kg.
Experiment [13] relates to Mus musculus. The experiment can be described thus: Reduction in hepatic steatosis in HFCFD-induced NASH C57BL/6JNifdc mouse model assessed as reduction in liver weight at 50 mg/kg, po administered once daily for 4 weeks. In kind it is functional, organism-based.
Experiment [14] relates to Mus musculus. The experiment can be described thus: Reduction in hepatic steatosis in HFCFD-induced NASH C57BL/6JNifdc mouse model assessed as decrease in neutral fat at 25 to 50 mg/kg, po administered once daily for 4 weeks by Oil red-O staining based assay. In kind it is functional, organism-based. To be noted: dose 25-50 mg/kg.
The subject of experiment [15] is Mus musculus. The experiment can be described thus: Antiinflammatory activity in HFCFD-induced NASH C57BL/6JNifdc mouse model assessed as change inflammatory infiltration at 50 mg/kg, po administered once daily for 4 weeks by H and E staining based analysis. In kind it is functional, organism-based.
For experiment [16], the system named is RAW264.7. The experiment in a line: Antiinflammatory activity in mouse RAW264.7 cells assessed as downregulation of NF-kappaB p65 phosphorylation level at upto 10 uM by Western blot analysis. In kind it is functional, cell-based.
In experiment [17] the test system is Mus musculus. The experiment in a line: Reduction in hepatic steatosis in HFCFD-induced NASH po dosed C57BL/6JNifdc mouse model assessed as decrease in lipid droplets administered once daily for 4 weeks by H and E staining based analysis. In kind it is functional, organism-based. Conditions: dose 25-50 mg/kg.
The test system of experiment [18] is Mus musculus. The experiment can be described thus: Antiinflammatory activity in HFCFD-induced NASH po dosed C57BL/6JNifdc mouse model assessed as downregulation of IL-1beta expression administered once daily for 4 weeks. In kind it is functional, organism-based. To be noted: dose 25-50 mg/kg.
Experiment [19] concerns Mus musculus. The experiment in a line: Antiinflammatory activity in HFCFD-induced NASH po dosed C57BL/6JNifdc mouse model assessed as downregulation of TNFalpha expression administered once daily for 4 weeks. In kind it is functional, organism-based. Conditions: dose 25-50 mg/kg.
Experiment [20] concerns the target T1, 5'-AMP-activated protein kinase (Mus musculus) (UniProt Q5EG47+Q8BRK8+Q6PAM0+O54950+Q91WG5+Q9R078+Q8BGM7). The experiment in a line: Agonist activity at AMPK in mouse RAW264.7 cells assessed as stimulation of AMPK phosphorylation at upto 10 uM. In kind it is cell-based. Conditions: filed as agonist.
Experiment [21] concerns Mus musculus. The experiment can be described thus: Anti-fibrosis effect in HFCFD-induced NASH C57BL/6JNifdc mouse model assessed as downregulation of alpha-SMA mRNA level at 25 to 50 mg/kg, po administered once daily for 4 weeks. In kind it is functional, organism-based. To be noted: dose 25-50 mg/kg.
Experiment [22] concerns Mus musculus. The experiment in a line: Antiinflammatory activity in HFCFD-induced NASH C57BL/6JNifdc mouse model assessed as decrease in ALT serum level at 50 mg/kg, po administered once daily for 4 weeks by automated biochemical analyzer. In kind it is functional, organism-based.
The target in experiment [23] is T1, 5'-AMP-activated protein kinase (Mus musculus). The experiment in a line: Agonist activity at AMPK in mouse C2C12 cells assessed as stimulation of AMPK phosphorylation at upto 30 uM. In kind it is cell-based. To be noted: filed as agonist.
The test system of experiment [24] is Mus musculus. The experiment in a line: Anti-fibrosis effect in HFCFD-induced NASH C57BL/6JNifdc mouse model assessed as downregulation of Col3a1 mRNA level at 25 to 50 mg/kg, po administered once daily for 4 weeks. To be noted: dose 25-50 mg/kg. In kind it is functional, organism-based.
Experiment [25] relates to Mus musculus. The experiment in a line: Antiinflammatory activity in HFCFD-induced NASH po dosed C57BL/6JNifdc mouse model assessed as downregulation of CCL4 expression administered once daily for 4 weeks. To be noted: dose 25-50 mg/kg. In kind it is functional, organism-based.
Experiment [26] concerns Mus musculus. The experiment can be described thus: Antiinflammatory activity in HFCFD-induced NASH C57BL/6JNifdc mouse model assessed as decrease in AST serum level at 50 mg/kg, po administered once daily for 4 weeks by automated biochemical analyzer. In kind it is functional, organism-based.
The test system of experiment [27] is Mus musculus. The experiment in a line: Anti-fibrosis effect in HFCFD-induced NASH C57BL/6JNifdc mouse model assessed as decrease in collagen accumulation at 25 to 50 mg/kg, po administered once daily for 4 weeks by Sirius red staining based analysis. In kind it is functional, organism-based. Conditions: dose 25-50 mg/kg.
Experiment [28] deals with T1, 5'-AMP-activated protein kinase (Mus musculus). The experiment can be described thus: Agonist activity at AMPK in mouse C2C12 cells assessed as increase in PGC-1alpha mRNA level. To be noted: filed as agonist, dose <= 30.0 µM. In kind it is cell-based.
Experiment [29] has as its system RAW264.7. The experiment can be described thus: Anti-inflammatory activity in LPS induced mouse RAW264.7 cells assessed as inhibition of IL-6 mRNA expression at 10 uM incubated for 12 hrs followed by LPS stimulation and measured after 6 hrs by RT-PCR method. In kind it is functional, cell-based. Conditions: time 18.0 hrs.

Activity calls are given as the source filed them. The calls are words filed in the database; no cut-off is given here.

In general, IC50 refers to the point on the concentration scale where inhibition reaches its midpoint.

Turning to `Cc1ccc(C)c(OCCCC(C)(C)C(=O)NC2CCN(Cc3ccc(C(F)(F)F)cc3)CC2)c1`, in the experiment on RAW264.7 [1], the half-maximal inhibitory concentration (IC50) came to 5.17 µM. Besides, the Activity with RAW264.7 [2] came out at 93.12%.
Regarding `CC(C)(Oc1ccc(Cl)cc1)C(=O)NC1CCN(Cc2ccccc2)CC1`, the outcome in the experiment on RAW264.7 [3] was inactive.
Take `CC(C)(Oc1ccc(C(=O)c2ccc(Cl)cc2)cc1)C(=O)NC1CCN(Cc2ccc(OC(F)(F)F)cc2)CC1`: the IC50 with RAW264.7 [1] turned out to be 9.76 µM. In the experiment with RAW264.7 [2], the Activity is given as 88.34%.
Regarding `CC(C)(Oc1ccc(C(=O)c2ccc(Cl)cc2)cc1)C(=O)NC1CCN(Cc2ccc(C(F)(F)F)cc2)CC1`, the Activity entry in the experiment with Mus musculus [4], in the experiment on Mus musculus [5], in the experiment with Mus musculus [8], in the experiment on Mus musculus [10], in the experiment with Mus musculus [12] and in the experiment on Mus musculus [17] was “Dose-Dependent Effect” in each case. The Activity entry in the experiment on Mus musculus [18] is “Dose-Dependent Effect”; in the experiment with Mus musculus [19], “Dose-Dependent Effect”; in the experiment with Mus musculus [25], “Dose-Dependent Effect”; in the experiment on RAW264.7 [2] it was 98.46%; in [28], “Dose-Dependent Effect”. The outcome with Mus musculus [6], with Mus musculus [7], in the experiment on Mus musculus [9], with Mus musculus [11], in the experiment with Mus musculus [13] and in the experiment on Mus musculus [14] was Active. Further, the outcome (in the experiment with Mus musculus [15]; in the experiment with RAW264.7 [16]; in [20]; in the experiment on Mus musculus [21]; in the experiment with Mus musculus [22]; in experiment [23]) was Active. The result with Mus musculus [24], with Mus musculus [26] and with Mus musculus [27] was Active. Moreover, the IC50 in the experiment on RAW264.7 [1] came to 4.4 µM.
Consider `Cc1ccc(C)c(OCCCC(C)(C)C(=O)NC2CCN(Cc3ccc(Cl)cc3)CC2)c1`, for which the IC50 with RAW264.7 [1] is 14.8 µM. Also, the Activity in the experiment with RAW264.7 [2] amounted to 68.99%.
As for `O=C(COc1ccc(C(=O)c2ccccc2)cc1)NC1CCN(Cc2ccccc2)CC1`, the result in the experiment on RAW264.7 [3] and in the experiment on RAW264.7 [29] was Active. Also, in the experiment on RAW264.7 [1], the half-maximal inhibitory concentration (IC50) turned out to be 15 µM. For the same molecule, in the experiment on RAW264.7 [2], the Activity is 96.32%.
For `Cc1ccc(CN2CCC(NC(=O)C(C)(C)Oc3ccc(C(=O)c4ccc(Cl)cc4)cc3)CC2)cc1`, the IC50 in the experiment on RAW264.7 [1] worked out at 8.56 µM. Moreover, the Activity in the experiment on RAW264.7 [2] was found to be 4.64%.
For `Cc1ccc(C)c(OCCCC(C)(C)C(=O)NC2CCN(Cc3ccc(F)cc3)CC2)c1`, in that order: 4.56 µM and 78.02%.
Regarding `Cc1ccc(C)c(OCCCC(C)(C)C(=O)NC2CCN(Cc3ccccc3)CC2)c1`, the result in the experiment with RAW264.7 [3] was Active.
Regarding `Cc1ccc(CN2CCC(NC(=O)C(C)(C)CCCOc3cc(C)ccc3C)CC2)cc1`, the IC50 with RAW264.7 [1] is 6.54 µM. Moreover, in the experiment on RAW264.7 [2], the Activity turned out to be 42.67%.
For `COc1ccc(CN2CCC(NC(=O)COc3ccc(C(=O)c4ccc(Cl)cc4)cc3)CC2)cc1`, in that order: 10.2 µM and 3.33%.
In the case of `CC(C)(Oc1ccc(C(=O)c2ccc(Cl)cc2)cc1)C(=O)NC1CCN(Cc2ccccc2)CC1`, in the experiment with RAW264.7 [3], the result was Active.
`COc1ccc(CN2CCC(NC(=O)C(C)(C)CCCOc3cc(C)ccc3C)CC2)cc1`: the IC50 with RAW264.7 [1] was 4.15 µM. This molecule also registered an Activity in the experiment with RAW264.7 [2] of 7.19%.
For `COc1ccc(CN2CCC(NC(=O)C(C)(C)Oc3ccc(C(=O)c4ccc(Cl)cc4)cc3)CC2)cc1`, in that order: 4.57 µM and 4.08%.

The record behind these values is ChEMBL document CHEMBL5247580, “Discovery of novel AdipoRon analogues as potent anti-inflammatory agents against nonalcoholic steatohepatitis” (Eur J Med Chem, 2022).
